# EP0369664B1, “Fish CRF” (THE SALK INSTITUTE FOR BIOLOGICAL STUDIES, priority 1988, dated 1994)
# Where two headings read alike, the source gives them in different places. No end group written: not given here.
# Legend:
# [1] = system: secretion of ACTH and β-END-LI; assay: secretion of ACTH and β-END-LI, test system not specified
# [2] = vasodilatory-hypotensive activity, lowering of systemic blood pressure; type: in vivo; details: for vasodilatory-hypotensive activity: called mammalian for Example III only; for systemic blood pressure: in vivo
# [3] = system: cultured rat pituitary cells; assay: secretion of ACTH and β-endorphin by cultured rat pituitary cells; type: cell-based
# [4] = blood pressure in the rat; type: in vivo
# [5] = blood pressure in the dog; type: in vivo
# ACTH and β-endorphin = ACTH and β-endorphin activities in vitro and in vivo, general statement
# [6] = system: pituitary-adrenalcortical axis; assay: stimulation of the pituitary-adrenalcortical axis and levels of pro-opiomelanocortin products; details: in vivo
# [7] = system: ACTH and β-END-LI secretion; assay: ACTH and β-END-LI secretion in vivo in several rat preparations
# [8] = activity and learning performance after administration into the ventricles; type: in vivo; details: rats, administered into the ventricles
# [9] = lowering of blood pressure, general statement; type: in vivo; details: for an extended time period
# teleost fish pituitaries = assay: secretion of ACTH by teleost fish pituitaries; type: cell-based
# [10] = system: secretion of ACTH and β-endorphin; details: reported; cited from earlier work
# [11] = in mammals; reported; cited from earlier work
# gastric acid production = details: in vivo; cited from earlier work
substance,measurement,setting,value
Ac-SEEPPISLDLTFHLLREVLEMARAEQLAQQAHSNRKMMEIF-NH2 [II],secretion of ACTH,[1],stimulates
same,secretion of β-END-LI,[1],stimulates
same,vasodilatory-hypotensive activity,[2],causes vasodilatory-hypotensive activity
same,systemic blood pressure,[2],lowering
PPISLDLTFHLLREVLEMARAEQLAQQAHSNRKMMEIF-NH2 [III],secretion of ACTH,[1],stimulates
same,vasodilatory-hypotensive activity,[2],significant
same,systemic blood pressure,[2],lowering
SEEPPISLDLTFHLLREVLEMARAEQLAQQAHSNRKMMEIF-NH2 [Example I],secretion of ACTH,[3],stimulates
same,secretion of β-endorphin,[3],stimulates
same,blood pressure,[4],marked fall
same,blood pressure,[5],sustained depression
same,ACTH activies,ACTH and β-endorphin,stimulates
same,β-endorphin activies,ACTH and β-endorphin,stimulates
same,"levels of ACTH, β-END, β-lipotropin, other pro-opiomelanocortin gene products and corticosterone",[6],elevates
same,pituitary-adrenalcortical axis,[6],profoundly stimulates
same,ACTH secretion,[7],stimulates
same,β-END-LI secretion,[7],stimulates
same,activity,[8],increases
same,learning performance,[8],improves
same,blood pressure,[9],substantially lowers
same,secretion of ACTH,teleost fish pituitaries,stimulates
Sauvagine,secretion of ACTH,[10],stimulating
same,secretion of β-endorphin,[10],stimulating
same,blood pressure,[11],lowering
"oCRF: ovine corticotropin releasing factor, characterized in 1981, U.S. Patent No. 4,415,558 (H-SQEPPISLDLTFHLLREVLEMTKADQLAQQAHSNRKLLDIA-NH2; ends and bridges not checked; UniProt P01142 148-188, looked up)",secretion of ACTH,[10],stimulating
same,secretion of β-endorphin,[10],stimulating
same,gastric acid production,gastric acid production,inhibits
same,blood pressure,[11],lowering
